Reference: paper PMC5303205, “Comparative studies on the multi-component pharmacokinetics of Aristolochiae Fructus and honey-fried Aristolochiae Fructus extracts after oral administration in rats” (BMC Complementary and Alternative Medicine, 2017)
Read-outs that look alike come from different tables or passages of the source.

Assays:
[1] = Multi-component pharmacokinetics of AAs in rats after oral administration of AF and HAF extracts (HPLC-MS/MS of plasma); design: species or system Sprague–Dawley (SD) rats; settings: Sprague-Dawley, rat, in vivo
Experimental: An aliquot (100 μl) of rat plasma was spiked with 10.0 μL IS, and vortexed with 300 μL acetic ether for 10 s before the supernatant was transferred into centrifuge tube. The extraction was repeated with 200 μL acetic ether. The combined organic layer was evaporated to dryness under a gentle stream of nitrogen at RT. The residue was resolved in 100 μL methanol and centrifuged at 15,800 × g for 10 min. The supernatant was used for HPLC-MS/MS analysis.
Chromatographic separation was performed by an Acquity C18 column (4.6 × 100 mm,3.5 μm) (Agilent Technologies, USA). The mobile phase was composed of water (containing 10 mM ammonium formate and formic acid, pH 3.0) (solvent A) and ACN (solvent B). The gradient profile of B was: 0–10 min, 35–38%; 10–11 min, 38– 60%; 11–17 min, 60–35%B; 17–18 min, 35%. The flow rate was kept at 0.5 mL/min. The column oven was set at 30 °C and the injection volume was 10 μL.
The mass spectrometer was operated in the positive ion electrospray mode with multiple reaction monitoring (MRM). The optimal MS parameters were set at the following parameters: a desolvation gas temperature of 450 °C, desolvation gas flow of 10 L/min, a nebulizer gas of 40 psi and a capillary voltage of 4000 V. The mass spectrometry conditions of AA I, AA II, AA C, AA D, 7-OH AA I and IS are summarized in Additional file 1: Table S1.
The rats were randomly divided into 6 groups (low, middle and high doses of AF and HAF; n = 6). After a week of acclimation, the animals were fasted for 12 h with free access to water. Then, AF and HAF extracts were administered to the rats. The extracts were suspended in 0.5% CMC–Na solution, and the oral doses (according to AA I in the extracts) were 3.0 mg/kg, 8.0 mg/kg and 15.0 mg/kg, respectively.
Blood samples were collected from the ocular vein using dried heparinized tubes at 0, 0.083, 0.17, 0.33, 0.50, 0.67, 0.83, 1, 2, 4, 6, 8, 10, 12 and 24 h from the start. The animals received fluid replacement (sterile isotonic saline) after every two samplings since the fifth collecting. The samples were then immediately centrifuged at 3100 × g for 10 min. The plasma obtained was frozen and stored at –20 °C until analysis.
All statistical analyses were performed using the SPSS 11.0 software (Chicago, USA). P values <0.05 were considered statistically significant. Pharmacokinetic analysis was performed using the proprietary DAS 3.0 software (Mathematical Pharmacology Professional Committee of China, Shanghai, China).
After the oral administration of AF and HAF extracts, rat plasma samples were prepared and analyzed as described above. Five main AAs can be detected in rat blood with the proposed HPLC-MS/MS method. The mean pharmacokinetic parameters of five AAs in AF and HAF are summarized in Tables 4, 5 and Additional files 5, 6, 7: Tables S4-S6. The maximum concentration (C max) was the experimentally-observed value. The other pharmacokinetic parameters of the five analytes were fitted by DAS 3.0 software.

[2] = Stability of AAs in rat plasma (QC samples, HPLC-MS/MS); type: in vitro ADME; settings: n = 5; for Short-term stability (RSD/%): fresh rat plasma at room temperature for 24 h before sample preparation; for Post-preparation stability (RSD/%): prepared rat plasma samples at room temperature for 24 h; for Long-term stability (RSD/%): rat plasma stored at –20 °C for 14 days; for Freeze-thaw stability (RSD/%): rat plasma, three freeze-thaw cycles (–20 °C 24 h, thawed at room temperature)
Experimental: The QC samples were assayed under several different conditions to evaluate the stability of AAs in rat plasma. The freeze-thaw stability of the analyte was determined over three freeze-thaw cycles. In each freeze-thaw cycle, the samples were frozen and stored at –20 °C for 24 h, then thawed at room temperature. To evaluate the long-term stability of AAs, the plasma samples were stored at –20 °C for 14 days. For the short-term stability, fresh plasma samples were kept at room temperature for 24 h before the sample preparation. After keeping the samples at room temperature for 24 h, post-preparation stability was tested. Stability was evaluated by comparing the mean concentration of the stored samples with the mean concentration of those prepared freshly. The stability data were acceptable when the bias was within ±15% of the actual value.

[3] = 3 mg/kg, AF extract, low dose (3.0 mg/kg as AA I), analyte dose mg/kg: AA I 3.0, AA II 0.21, AA C 1.42, AA D 1.60, 7-OH AA I 2.33, n = 6
[4] = 3 mg/kg, HAF extract, low dose (3.0 mg/kg as AA I), analyte dose mg/kg: AA I 3.0, AA II 0.26, AA C 1.53, AA D 1.51, 7-OH AA I 2.48, n = 6
[5] = 8 mg/kg, AF extract, mid dose (8.0 mg/kg as AA I), analyte dose mg/kg: AA I 8.0, AA II 0.56, AA C 3.78, AA D 4.26, 7-OH AA I 6.22, n = 6
[6] = 8 mg/kg, HAF extract, mid dose (8.0 mg/kg as AA I), analyte dose mg/kg: AA I 8.0, AA II 0.69, AA C 4.09, AA D 4.03, 7-OH AA I 6.62, n = 6
[7] = 15 mg/kg, AF extract, high dose (15.0 mg/kg as AA I), analyte dose mg/kg: AA I 15.0, AA II 1.05, AA C 7.09, AA D 8.00, 7-OH AA I 11.66, n = 6
[8] = 15 mg/kg, HAF extract, high dose (15.0 mg/kg as AA I), analyte dose mg/kg: AA I 15.0, AA II 1.29, AA C 7.66, AA D 7.56, 7-OH AA I 12.41, n = 6
[9] = high QC conc ng/mL: AA I 1830, AA II 3200, AA C 2980, AA D 3680, 7-OH AA I 3280
[10] = low QC conc ng/mL: AA I 1.83, AA II 8.00, AA C 186.3, AA D 36.8, 7-OH AA I 82.0
[11] = middle QC conc ng/mL: AA I 457.5, AA II 400, AA C 372.5, AA D 460, 7-OH AA I 410

Work on `O=C(O)c1cc2c(c3c1c([N+](=O)[O-])cc1ccccc13)OCO2` [AA II] yielded an AUC(0-inf) [1, 3] of 3960 ± 1000 ng·h/mL, a Cmax [1, 3] of 590 ± 191 ng/mL and a Tmax [1, 3] of 1.03 ± 0.18 h. For the same molecule, the CL/F ([1]; 3 mg/kg, AF extract, low dose (3.0 mg/kg as AA I), analyte dose mg/kg: AA I 3.0, AA II 0.21, AA C 1.42, AA D 1.60, 7-OH AA I 2.33, n = 6, read-out: CLz/F (converted)) was 1.17 mL/min/kg, the Vd/F ([1]; 3 mg/kg, AF extract, low dose (3.0 mg/kg as AA I), analyte dose mg/kg: AA I 3.0, AA II 0.21, AA C 1.42, AA D 1.60, 7-OH AA I 2.33, n = 6, read-out: Vz/F) was 0.49 ± 0.06 L/kg and the half-life ([1]; 3 mg/kg, AF extract, low dose (3.0 mg/kg as AA I), analyte dose mg/kg: AA I 3.0, AA II 0.21, AA C 1.42, AA D 1.60, 7-OH AA I 2.33, n = 6, read-out: t 1/2z (converted)) was 4.98 ± 0.55 h. For the same molecule, the AUC(0-inf) [1, 4] was 2720 ± 795 ng·h/mL, the Cmax [1, 4] was 293 ± 55.2 ng/mL and the Tmax [1, 4] was 0.81 ± 0.14 h. The CL/F ([1]; 3 mg/kg, HAF extract, low dose (3.0 mg/kg as AA I), analyte dose mg/kg: AA I 3.0, AA II 0.26, AA C 1.53, AA D 1.51, 7-OH AA I 2.48, n = 6, read-out: CLz/F (converted)) was 1.33 mL/min/kg, the Vd/F ([1]; 3 mg/kg, HAF extract, low dose (3.0 mg/kg as AA I), analyte dose mg/kg: AA I 3.0, AA II 0.26, AA C 1.53, AA D 1.51, 7-OH AA I 2.48, n = 6, read-out: Vz/F) was 0.55 ± 0.07 L/kg and the half-life ([1]; 3 mg/kg, HAF extract, low dose (3.0 mg/kg as AA I), analyte dose mg/kg: AA I 3.0, AA II 0.26, AA C 1.53, AA D 1.51, 7-OH AA I 2.48, n = 6, read-out: t 1/2z (converted)) was 4.94 ± 0.61 h. The AUC(0-inf) [1, 5] was 7820 ± 1980 ng·h/mL, the Cmax [1, 5] was 1140 ± 193 ng/mL and the Tmax [1, 5] was 1.33 ± 0.21 h. The CL/F ([1]; 8 mg/kg, AF extract, mid dose (8.0 mg/kg as AA I), analyte dose mg/kg: AA I 8.0, AA II 0.56, AA C 3.78, AA D 4.26, 7-OH AA I 6.22, n = 6, read-out: CLz/F (converted)) was 1.17 mL/min/kg, the Vd/F ([1]; 8 mg/kg, AF extract, mid dose (8.0 mg/kg as AA I), analyte dose mg/kg: AA I 8.0, AA II 0.56, AA C 3.78, AA D 4.26, 7-OH AA I 6.22, n = 6, read-out: Vz/F) was 0.48 ± 0.05 L/kg and the half-life ([1]; 8 mg/kg, AF extract, mid dose (8.0 mg/kg as AA I), analyte dose mg/kg: AA I 8.0, AA II 0.56, AA C 3.78, AA D 4.26, 7-OH AA I 6.22, n = 6, read-out: t 1/2z (converted)) was 5.06 ± 0.49 h. It also gave an AUC(0-inf) [1, 6] of 3870 ± 1200 ng·h/mL, a Cmax [1, 6] of 412 ± 104 ng/mL and a Tmax [1, 6] of 0.81 ± 0.16 h. For the same molecule, the CL/F ([1]; 8 mg/kg, HAF extract, mid dose (8.0 mg/kg as AA I), analyte dose mg/kg: AA I 8.0, AA II 0.69, AA C 4.09, AA D 4.03, 7-OH AA I 6.62, n = 6, read-out: CLz/F (converted)) was 1.17 mL/min/kg, the Vd/F ([1]; 8 mg/kg, HAF extract, mid dose (8.0 mg/kg as AA I), analyte dose mg/kg: AA I 8.0, AA II 0.69, AA C 4.09, AA D 4.03, 7-OH AA I 6.62, n = 6, read-out: Vz/F) was 0.49 ± 0.06 L/kg and the half-life ([1]; 8 mg/kg, HAF extract, mid dose (8.0 mg/kg as AA I), analyte dose mg/kg: AA I 8.0, AA II 0.69, AA C 4.09, AA D 4.03, 7-OH AA I 6.62, n = 6, read-out: t 1/2z (converted)) was 4.95 ± 0.53 h. It also gave an AUC(0-inf) [1, 7] of 12700 ± 2960 ng·h/mL, a Cmax [1, 7] of 1520 ± 200 ng/mL and a Tmax [1, 7] of 1.83 ± 0.29 h. It also gave a CL/F ([1]; 15 mg/kg, AF extract, high dose (15.0 mg/kg as AA I), analyte dose mg/kg: AA I 15.0, AA II 1.05, AA C 7.09, AA D 8.00, 7-OH AA I 11.66, n = 6, read-out: CLz/F (converted)) of 1.83 mL/min/kg, a Vd/F ([1]; 15 mg/kg, AF extract, high dose (15.0 mg/kg as AA I), analyte dose mg/kg: AA I 15.0, AA II 1.05, AA C 7.09, AA D 8.00, 7-OH AA I 11.66, n = 6, read-out: Vz/F) of 0.82 ± 0.09 L/kg and a half-life ([1]; 15 mg/kg, AF extract, high dose (15.0 mg/kg as AA I), analyte dose mg/kg: AA I 15.0, AA II 1.05, AA C 7.09, AA D 8.00, 7-OH AA I 11.66, n = 6, read-out: t 1/2z (converted)) of 5.16 ± 0.52 h. It also gave an AUC(0-inf) [1, 8] of 5630 ± 1690 ng·h/mL, a Cmax [1, 8] of 528 ± 62.4 ng/mL and a Tmax [1, 8] of 0.93 ± 0.19 h. It also gave a CL/F ([1]; 15 mg/kg, HAF extract, high dose (15.0 mg/kg as AA I), analyte dose mg/kg: AA I 15.0, AA II 1.29, AA C 7.66, AA D 7.56, 7-OH AA I 12.41, n = 6, read-out: CLz/F (converted)) of 1.5 mL/min/kg, a Vd/F ([1]; 15 mg/kg, HAF extract, high dose (15.0 mg/kg as AA I), analyte dose mg/kg: AA I 15.0, AA II 1.29, AA C 7.66, AA D 7.56, 7-OH AA I 12.41, n = 6, read-out: Vz/F) of 0.72 ± 0.08 L/kg and a half-life ([1]; 15 mg/kg, HAF extract, high dose (15.0 mg/kg as AA I), analyte dose mg/kg: AA I 15.0, AA II 1.29, AA C 7.66, AA D 7.56, 7-OH AA I 12.41, n = 6, read-out: t 1/2z (converted)) of 5.39 ± 0.48 h. The “Short-term stability (RSD/%)” value [2, 9] was 9.3%, the “Short-term stability (RSD/%)” value [2, 10] was 5.0% and the “Short-term stability (RSD/%)” value [2, 11] was 5.5%. For the same molecule, the “Post-preparation stability (RSD/%)” value [2, 9] was 6.5%, the “Post-preparation stability (RSD/%)” value [2, 10] was 4.4% and the “Post-preparation stability (RSD/%)” value [2, 11] was 3.6%. For the same molecule, the “Long-term stability (RSD/%)” value [2, 9] was 7.3%, the “Long-term stability (RSD/%)” value [2, 10] was 1.2% and the “Long-term stability (RSD/%)” value [2, 11] was 8.2%. For the same molecule, the “Freeze-thaw stability (RSD/%)” value [2, 9] was 14.3%, the “Freeze-thaw stability (RSD/%)” value [2, 10] was 1.3% and the “Freeze-thaw stability (RSD/%)” value [2, 11] was 10.2%.
